18 compounds from article PMC8286840, “Identifying SARS-CoV-2 antiviral compounds by screening for small molecule inhibitors of Nsp3 papain-like protease” (Biochemical Journal, 2021) can be followed below.

For experiment [1], the target named is T1, SARS-CoV-2 PLpro (nsp3 1564–1878) (Severe acute respiratory syndrome coronavirus 2, UniProt P0DTD1). Nature of the experiment: biochemical. On the set-up: FRET-quenched peptide (Pro3) cleavage by PLpro, 10 min pre-incubation, slope over 20 min, normalised to no-compound control. The following applies: low concentration screen, read-out: % of control remaining.

For experiment [2], the target named is T1, SARS-CoV-2 PLpro (nsp3 1564–1878). Nature of the experiment: biochemical. The settings on record: high concentration screen, read-out: % of control remaining. Also noted: FRET-quenched peptide (Pro3) cleavage by PLpro, 10 min pre-incubation, slope over 20 min, normalised to no-compound control.

SMILES strings stand for the structures. Structures can show the parent of a compound that is named as a salt. Where two headings read alike, the source gives them in different places.

As to `Cc1nc2c([nH]1)c(=O)n(C)c(=O)n2Cc1ccco1` [Furafylline], the remaining activity at 1.25 µM in experiment [1] (Well no.=665) was 95.4%; in experiment [1] (Well no.=1544), 97.6%. Also, the remaining activity at 3.75 µM in experiment [2] (Well no.=665) was determined as 92.2%; in experiment [2] (Well no.=1544), 100%.
Regarding `O=C(O)c1cc2cc(Cc3cccnc3)ccc2o1` [Furegrelate sodium], the remaining activity at 1.25 µM in experiment [1] (Well no.=563) worked out at 97.2%. In experiment [2] (Well no.=563), the remaining activity at 3.75 µM came to 97.3%.
Turning to `NS(=O)(=O)c1cc(C(=O)O)c(NCc2ccco2)cc1Cl` [Furosemide], the figures for the remaining activity at 1.25 µM in experiment [1] (Well no.=659), in experiment [1] (Well no.=2166) and in experiment [1] (Well no.=7462) were 92.2%, 101% and 102%, respectively. The values for the remaining activity at 3.75 µM in experiment [2] (Well no.=659), in experiment [2] (Well no.=2166) and in experiment [2] (Well no.=7462) were 94.4%, 99.5% and 102%, respectively.
Consider `CCCCc1ccc(C(=O)O)nc1` [Fusaric acid], for which the remaining activity at 1.25 µM in experiment [1] (Well no.=613) was found to be 98.5%. The remaining activity at 3.75 µM in experiment [2] (Well no.=613) amounted to 99.1%.
With `CC(=O)O[C@H]1C[C@@]2(C)[C@@H](C[C@@H](O)[C@H]3[C@@]4(C)CC[C@@H](O)[C@@H](C)[C@@H]4CC[C@@]32C)/C1=C(\CCC=C(C)C)C(=O)O` [Fusidic acid sodium], the remaining activity at 1.25 µM in experiment [1] (Well no.=657) amounted to 104%. Besides, the remaining activity at 3.75 µM in experiment [2] (Well no.=657) came out at 101%.
Turning to `c1cc(-c2sc(-c3ccncc3)c(-c3ccncc3)c2-c2ccncc2)ccn1` [GANT58], the remaining activity at 1.25 µM in experiment [1] (Well no.=5874) worked out at 94.6%. The remaining activity at 3.75 µM in experiment [2] (Well no.=5874) came out at 86.5%.
Take `Fc1ccc(C(OCCN2CCN(CCCc3ccccc3)CC2)c2ccc(F)cc2)cc1` [GBR-12909 dihydrochloride]: the remaining activity at 1.25 µM in experiment [1] (Well no.=590) was 98.5%. In experiment [2] (Well no.=590), the remaining activity at 3.75 µM amounted to 98.5%.
`c1ccc(CCCN2CCN(CCOC(c3ccccc3)c3ccccc3)CC2)cc1` [GBR-12935 dihydrochloride]: the remaining activity at 1.25 µM in experiment [1] (Well no.=765) was 91%. Further, the remaining activity at 3.75 µM in experiment [2] (Well no.=765) amounted to 87.4%.
With `CC(C)NC[C@@H](C(=O)N1CCN(c2ncnc3c2[C@H](C)C[C@H]3O)CC1)c1ccc(Cl)cc1` [GDC-0068], the remaining activity at 1.25 µM in experiment [1] (Well no.=5131) came to 104%. The remaining activity at 3.75 µM in experiment [2] (Well no.=5131) is 106%.
As for `CN[C@@H](C)C(=O)N[C@H](C(=O)N1CCC[C@H]1C(=O)Nc1snnc1-c1ccccc1)C1CCCCC1` [GDC-0152], the remaining activity at 1.25 µM in experiment [1] (Well no.=6692) is 103%. Further, the remaining activity at 3.75 µM in experiment [2] (Well no.=6692) was 95.6%.
Take `CCNC(=O)Nc1ccc(-c2nc3c(c(N4CCOC[C@@H]4C)n2)CCN(C2COC2)C3)cc1` [GDC-0349]: the remaining activity at 1.25 µM in experiment [1] (Well no.=5220) amounted to 97.8%. Moreover, in experiment [2] (Well no.=5220), the remaining activity at 3.75 µM came to 95.1%.
Turning to `OCCn1cc(-c2ccc3c(c2)CC/C3=N\O)c(-c2ccncc2)n1` [GDC-0879], the remaining activity at 1.25 µM in experiment [1] (Well no.=5043) amounted to 104%. Besides, the remaining activity at 3.75 µM in experiment [2] (Well no.=5043) was 104%.
Turning to `CS(=O)(=O)N1CCN(Cc2cc3nc(-c4cccc5[nH]ncc45)nc(N4CCOCC4)c3s2)CC1` [GDC-0941], the remaining activity at 1.25 µM in experiment [1] (Well no.=2801) was found to be 103%. For the same compound, the remaining activity at 3.75 µM in experiment [2] (Well no.=2801) was determined as 101%.
On to `Cc1cccc(NC(=O)Nc2ccc(-c3csc4ncnc(N)c34)cc2)c1` [GDP366], for which the remaining activity at 1.25 µM in experiment [1] (Well no.=6976) is 101%. Moreover, the remaining activity at 3.75 µM in experiment [2] (Well no.=6976) amounted to 99.1%.
Take `Cc1cc(Cc2cc(C)cc(C(C)(C)C)c2O)c(O)c(C(C)(C)C)c1` [GERI-BP002-A]: in experiment [1] (Well no.=3701), the remaining activity at 1.25 µM worked out at 97.3%. In addition, in experiment [2] (Well no.=3701), the remaining activity at 3.75 µM was 101%.
As for `Cc1cc(Cc2cc(C)cc(C(C)(C)C)c2O)c(O)c(C(C)(C)C)c1` [GERI-BP002A], the remaining activity at 1.25 µM in experiment [1] (Well no.=3907) is 104%. Also, in experiment [2] (Well no.=3907), the remaining activity at 3.75 µM came out at 97.7%.
Turning to `CN(C)CCCn1cc(C2=C(c3c[nH]c4ccccc34)C(=O)NC2=O)c2ccccc21` [GF 109203X - 2-[1-(3-Dimethylaminopropyl)indol-3-yl]-3-(indol-3-yl) maleimide], the remaining activity at 1.25 µM in experiment [1] (Well no.=2340) came out at 103%. Besides, the remaining activity at 3.75 µM in experiment [2] (Well no.=2340) is 106%.
In the case of `COC(=O)[C@H](CC(C)C)NC(=O)c1ccc(NC[C@@H](N)CS)cc1-c1cccc2ccccc12` [GGTI298 Trifluoroacetate], the remaining activity at 1.25 µM in experiment [1] (Well no.=8456) is 97.5%. Moreover, the remaining activity at 3.75 µM in experiment [2] (Well no.=8456) was determined as 86.9%.
